Measurements published in ChEMBL document CHEMBL3779843, “Discovery of a Potent Class I Protein Arginine Methyltransferase Fragment Inhibitor” (J Med Chem, 2016).
Active and inactive are the calls of the source. The rule behind the calls is not given here.

What was measured:
[1] = biological target: T1, Protein arginine N-methyltransferase 6 (Homo sapiens, UniProt Q96LA8); assay: Inhibition of N-terminal hexa-His tagged human PRMT6 expressed in Sf9 cells using 24 residues of biotin labelled histone4 substrate and tritiated 3H-S-adenosylmethionine by scintillation proximity assay
[2] = biological target: T2, Histone-arginine methyltransferase CARM1 (Homo sapiens, UniProt Q86X55); assay: (§1) Inhibition of CARM1 (unknown origin) using 24 residues of biotin labelled histone4 substrate and tritiated 3H-S-adenosylmethionine by scintillation proximity assay
T2 sequence (Q86X55 whole entry): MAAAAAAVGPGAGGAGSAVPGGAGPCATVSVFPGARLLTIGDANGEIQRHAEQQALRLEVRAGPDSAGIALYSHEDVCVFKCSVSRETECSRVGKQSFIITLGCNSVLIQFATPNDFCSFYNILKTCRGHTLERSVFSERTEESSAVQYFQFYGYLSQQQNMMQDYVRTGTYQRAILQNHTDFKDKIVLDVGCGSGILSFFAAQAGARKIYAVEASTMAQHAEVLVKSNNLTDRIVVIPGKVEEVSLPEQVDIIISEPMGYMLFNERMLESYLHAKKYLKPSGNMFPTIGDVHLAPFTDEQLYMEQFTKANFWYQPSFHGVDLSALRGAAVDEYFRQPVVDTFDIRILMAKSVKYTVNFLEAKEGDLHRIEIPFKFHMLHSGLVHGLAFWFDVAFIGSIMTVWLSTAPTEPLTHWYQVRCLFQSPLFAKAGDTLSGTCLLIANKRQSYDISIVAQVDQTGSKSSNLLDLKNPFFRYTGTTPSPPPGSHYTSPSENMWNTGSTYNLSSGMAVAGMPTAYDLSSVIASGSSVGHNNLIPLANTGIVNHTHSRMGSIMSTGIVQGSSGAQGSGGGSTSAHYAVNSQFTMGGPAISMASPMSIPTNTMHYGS

[3] = biological target: Protein arginine N-methyltransferase 3 (Homo sapiens, UniProt O60678); assay: Inhibition of human PRMT3 using 24 residues of biotin labelled histone4 substrate and tritiated 3H-S-adenosylmethionine by scintillation proximity assay
[4] = biological target: T2, Histone-arginine methyltransferase CARM1; assay: Inhibition of human PRMT4 using 24 residues of biotin labelled histone4 substrate and tritiated 3H-S-adenosylmethionine by scintillation proximity assay
[5] = biological target: Protein arginine N-methyltransferase 5 (Homo sapiens, UniProt O14744); assay: Inhibition of human PRMT5 using 24 residues of biotin labelled histone4 substrate and tritiated 3H-S-adenosylmethionine by scintillation proximity assay
[6] = biological target: T3, Protein arginine N-methyltransferase 7 (Homo sapiens, UniProt Q9NVM4); assay: Inhibition of human PRMT7 using 24 residues of biotin labelled histone4 substrate and tritiated 3H-S-adenosylmethionine by scintillation proximity assay
T3 sequence (Q9NVM4 whole entry): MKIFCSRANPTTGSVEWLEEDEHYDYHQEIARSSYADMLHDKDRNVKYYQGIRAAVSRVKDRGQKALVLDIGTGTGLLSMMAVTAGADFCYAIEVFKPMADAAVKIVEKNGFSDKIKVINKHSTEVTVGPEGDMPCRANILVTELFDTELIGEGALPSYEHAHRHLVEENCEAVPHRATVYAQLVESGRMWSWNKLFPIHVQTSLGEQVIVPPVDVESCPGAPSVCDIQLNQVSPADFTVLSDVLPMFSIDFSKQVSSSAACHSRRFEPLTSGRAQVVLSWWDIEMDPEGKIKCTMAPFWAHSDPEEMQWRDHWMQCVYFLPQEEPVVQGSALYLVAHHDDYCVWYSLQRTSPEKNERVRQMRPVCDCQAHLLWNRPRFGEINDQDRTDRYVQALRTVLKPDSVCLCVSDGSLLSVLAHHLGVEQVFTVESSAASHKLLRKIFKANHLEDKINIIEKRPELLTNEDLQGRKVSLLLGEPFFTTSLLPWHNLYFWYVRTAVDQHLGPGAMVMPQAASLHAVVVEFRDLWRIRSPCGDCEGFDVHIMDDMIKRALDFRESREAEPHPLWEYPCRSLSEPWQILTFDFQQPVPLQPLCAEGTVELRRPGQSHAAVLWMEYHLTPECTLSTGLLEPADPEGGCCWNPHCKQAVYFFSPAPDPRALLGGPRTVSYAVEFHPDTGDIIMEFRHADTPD

[7] = biological target: Protein arginine N-methyltransferase 8 (Homo sapiens, UniProt Q9NR22); assay: Inhibition of human PRMT8 using 24 residues of biotin labelled histone4 substrate and tritiated 3H-S-adenosylmethionine by scintillation proximity assay
[8] = biological target: Protein arginine N-methyltransferase 6 (Homo sapiens, UniProt Q96LA8, L267E); assay: Inhibition of PRMT6 L267E mutant (unknown origin) using 24 residues of biotin labelled histone4 substrate and tritiated 3H-S-adenosylmethionine by scintillation proximity assay
[9] = biological target: T1, Protein arginine N-methyltransferase 6; assay: Inhibition of FLAG-tagged human PRMT6 expressed in HEK293 cells assessed as reduction in H3R2 global methylation incubated for 20 hrs by Western blot method; assay type: cell-based
[10] = biological target: T1, Protein arginine N-methyltransferase 6; assay: Binding affinity to Inhibition of N-terminal hexa-His tagged human PRMT6 expressed in Sf9 cells by ITC method
[11] = biological target: T2, Histone-arginine methyltransferase CARM1; assay: Inhibition of GST-tagged CARM1 (unknown origin) using tritiated S-adenosylmethionine as substrate at 6 nM by methylation- based filter assay
[12] = biological target: Protein arginine N-methyltransferase 1 (Homo sapiens, UniProt Q99873); assay: Inhibition of human PRMT1 using 24 residues of biotin labelled histone4 substrate and tritiated 3H-S-adenosylmethionine by scintillation proximity assay
[13] = biological target: T4, Histone-arginine methyltransferase CARM1 (Homo sapiens) (UniProt Q86X55); assay: as §1
T4 sequence (whole entry): T2 sequence (Q86X55 whole entry)

Sequence of Protein arginine N-methyltransferase 3 (O60678 whole entry): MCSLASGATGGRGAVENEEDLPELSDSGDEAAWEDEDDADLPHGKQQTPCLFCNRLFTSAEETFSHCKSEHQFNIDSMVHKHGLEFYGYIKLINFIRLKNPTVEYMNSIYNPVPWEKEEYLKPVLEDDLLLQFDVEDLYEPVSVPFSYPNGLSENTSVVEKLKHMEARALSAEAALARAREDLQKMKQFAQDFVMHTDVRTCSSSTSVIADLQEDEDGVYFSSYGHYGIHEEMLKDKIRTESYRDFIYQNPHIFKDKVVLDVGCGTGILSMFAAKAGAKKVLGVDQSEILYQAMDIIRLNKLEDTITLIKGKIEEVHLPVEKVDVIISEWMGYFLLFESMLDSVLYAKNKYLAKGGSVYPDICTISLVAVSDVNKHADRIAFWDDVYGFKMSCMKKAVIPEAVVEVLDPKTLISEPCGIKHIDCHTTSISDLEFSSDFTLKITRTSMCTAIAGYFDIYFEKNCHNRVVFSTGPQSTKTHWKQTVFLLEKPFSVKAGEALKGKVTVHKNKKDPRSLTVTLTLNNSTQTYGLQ
Sequence of Protein arginine N-methyltransferase 5 (O14744 whole entry): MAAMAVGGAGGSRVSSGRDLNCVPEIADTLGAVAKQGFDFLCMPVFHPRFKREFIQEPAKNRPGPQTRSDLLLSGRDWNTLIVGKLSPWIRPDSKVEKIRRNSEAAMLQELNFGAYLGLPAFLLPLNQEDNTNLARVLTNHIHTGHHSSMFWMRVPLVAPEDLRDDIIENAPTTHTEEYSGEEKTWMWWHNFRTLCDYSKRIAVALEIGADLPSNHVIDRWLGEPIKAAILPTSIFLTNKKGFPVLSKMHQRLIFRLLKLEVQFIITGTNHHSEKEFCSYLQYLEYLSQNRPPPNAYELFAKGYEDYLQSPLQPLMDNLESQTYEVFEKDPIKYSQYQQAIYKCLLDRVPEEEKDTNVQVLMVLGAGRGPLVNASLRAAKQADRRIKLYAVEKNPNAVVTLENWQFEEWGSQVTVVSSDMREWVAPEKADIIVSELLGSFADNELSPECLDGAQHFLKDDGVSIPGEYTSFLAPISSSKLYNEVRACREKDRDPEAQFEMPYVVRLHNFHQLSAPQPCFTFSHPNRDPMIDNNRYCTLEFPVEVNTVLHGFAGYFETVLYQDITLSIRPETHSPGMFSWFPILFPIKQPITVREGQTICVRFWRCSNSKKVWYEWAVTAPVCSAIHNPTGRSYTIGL
Sequence of Protein arginine N-methyltransferase 8 (Q9NR22 whole entry): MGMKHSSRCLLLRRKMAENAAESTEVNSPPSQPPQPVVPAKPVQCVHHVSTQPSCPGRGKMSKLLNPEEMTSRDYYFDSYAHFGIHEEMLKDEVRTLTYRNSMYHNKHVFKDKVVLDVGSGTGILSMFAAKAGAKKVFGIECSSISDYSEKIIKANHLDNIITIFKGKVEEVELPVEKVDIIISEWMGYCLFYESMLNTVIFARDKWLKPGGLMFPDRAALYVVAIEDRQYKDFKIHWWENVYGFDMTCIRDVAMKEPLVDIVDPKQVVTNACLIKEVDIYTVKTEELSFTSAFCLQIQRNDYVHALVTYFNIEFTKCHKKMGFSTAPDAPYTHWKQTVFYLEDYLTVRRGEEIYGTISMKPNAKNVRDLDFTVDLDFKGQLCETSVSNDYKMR
T1 sequence (Q96LA8 whole entry): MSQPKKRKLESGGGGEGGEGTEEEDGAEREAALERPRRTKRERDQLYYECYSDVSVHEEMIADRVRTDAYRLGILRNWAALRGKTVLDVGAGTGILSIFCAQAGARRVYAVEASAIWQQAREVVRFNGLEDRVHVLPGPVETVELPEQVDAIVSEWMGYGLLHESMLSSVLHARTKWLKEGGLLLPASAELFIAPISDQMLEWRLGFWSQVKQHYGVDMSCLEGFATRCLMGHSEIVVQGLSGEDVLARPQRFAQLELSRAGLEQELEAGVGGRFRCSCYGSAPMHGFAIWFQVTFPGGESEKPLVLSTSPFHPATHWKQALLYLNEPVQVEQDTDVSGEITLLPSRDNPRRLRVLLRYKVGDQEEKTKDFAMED
Sequence of Protein arginine N-methyltransferase 1 (Q99873 whole entry): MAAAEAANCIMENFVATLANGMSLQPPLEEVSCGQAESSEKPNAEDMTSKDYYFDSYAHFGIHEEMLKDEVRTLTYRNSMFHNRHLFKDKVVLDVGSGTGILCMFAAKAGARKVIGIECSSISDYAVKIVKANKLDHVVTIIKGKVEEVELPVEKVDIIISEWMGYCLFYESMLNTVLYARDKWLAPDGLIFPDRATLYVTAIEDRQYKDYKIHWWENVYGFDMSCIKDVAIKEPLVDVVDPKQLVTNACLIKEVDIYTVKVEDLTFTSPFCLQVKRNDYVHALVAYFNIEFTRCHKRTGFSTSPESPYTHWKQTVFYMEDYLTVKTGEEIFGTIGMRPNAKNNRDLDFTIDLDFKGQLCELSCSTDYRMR
Sequence of Protein arginine N-methyltransferase 6 (Homo sapiens, UniProt Q96LA8, L267E) (Q96LA8 whole entry L267E): as the sequence (Q96LA8 whole entry) above, with L267E counted along it

IC50 [1] [µM]	IC50 [2] [µM]	IC50 [3] [µM]	IC50 [4] [µM]	IC50 [5]	IC50 [6]	IC50 [7] [µM]	SMILES	also measured
146	–	–	–	–	–	–	CNCc1cccc(-c2ccco2)c1	–
46	–	–	–	–	–	–	Cc1nc(N)sc1-n1ccc(C(F)(F)F)n1	–
5	3	35	3	Not Active	Not Active	7	CNCCN(C)C	–
430	–	–	–	–	–	–	Nc1ccc(S(=O)(=O)Nc2nccs2)cc1 [SULFATHIAZOLE]	–
–	–	–	–	–	–	–	C[C@@H](N)C(=O)NCc1cccc(-n2nc(C(F)(F)F)cc2-c2nnc(-c3cccc4[nH]ccc34)o2)c1	IC50 [11]: 0.027 µM
–	0.2	> 500	0.2	Not Active	Not Active	15	CNCCN1CCC(C)CC1	IC50 [12]: 48 µM
> 200	105	> 1000	105	Not Active	Not Active	> 200	CCNC(=O)[C@@H](C)N	IC50 [12]: > 1000 µM
–	–	–	–	–	–	–	CNCCN1CCC(c2ccc3[nH]c(-c4ccccc4OC)c(Cl)c3c2)CC1	inhibition [13]: Active
104	–	–	–	–	–	–	CNCc1cccc(-c2cccnc2)c1	–

SMILES	IC50 [1] [µM]	IC50 [2] [µM]	IC50 [3] [µM]	IC50 [4] [µM]	IC50 [5]	IC50 [6]	IC50 [7] [µM]	also measured
NCCN1CCC(Cc2ccccc2)CC1	0.23	1	19	1	Not Active	Not Active	2.1	IC50 [8]: 0.39 µM; IC50 [9]: 21 µM; Kd [10]: 0.97 µM
